18 compounds from patent US20050101595A1, “N-containing cycloalkyl-substituted amino-thiazole derivatives and pharmaceutical compositions for inhibiting cell proliferation and methods for their use” (PFIZER INC., priority 2003, published 2005) can be followed below.

Assay [1] addresses human CDK4 and genetically truncated (1-264) cyclin D3 (Homo sapiens, UniProt P11802). The assay is described as follows: Inhibition of CDK4/Cyclin D Retinoblastoma Kinase Activity. The conditions noted are these: apparent Ki, CDK4/truncated cyclin D3, Rb fragment substrate, 25 μM ATP. Format: biochemical. The procedure: Cyclin-dependent kinase activity was measured by quantifying the enzyme-catalyzed, time-dependent incorporation of radioactive phosphate from [^32P]ATP or [^33P]ATP into a protein substrate. Unless noted otherwise, assays were performed in 96-well plates in a total volume of 50 μL, in the presence of 10 mM HEPES (N-[2-hydroxyethyl]piperazine-N′-[2-ethanesulfonic acid]) (pH 7.4), 10 mM MgCl2, 25 μM adenosine triphosphate (ATP), 1 mg/mL ovalbumin, 5 μg/mL leupeptin, 1 mM dithiothreitol, 10 mM β-glycerophosphate, 0.1 mM sodium vanadate, 1 mM sodium fluoride, 2.5 mM ethylene glycol-bis(β-aminoethyl ether)-N,N,N′N′-tetraacetic acid (EGTA), 2% (v/v) dimethylsulfoxide, and 0.03-0.4 μCi [^32/33P]ATP per reaction. Reactions were initiated with enzyme, incubated at 30° C., and terminated after 20 minutes by the addition of ethylenediaminetetraacetic acid (EDTA) to 250 mM. The phosphorylated substrate was then captured on a nitrocellulose or phosphocellulose membrane using a 96-well filtration manifold, and unincorporated radioactivity was removed by repeated washing with 0.85% phosphoric acid. Radioactivity was quantified by exposing the dried membranes to a phosphorimager.
Inhibition was measured relative to control wells that contained all reaction components including 2% (v/v) DMSO but no compound, after subtraction of background radioactivity measured in the absence of enzyme. Apparent Ki values of discrete compounds were measured by assaying enzyme activity in the presence of different inhibitor compound concentrations and subtracting the background radioactivity measured in the absence of enzyme. The kinetic parameters (kcat, Km for ATP) were measured for each enzyme under the usual assay conditions by determining the dependence of initial rates on ATP concentration. Inhibition data were fit to an equation for competitive inhibition using Kaleidagraph (Synergy Software), or were fit to an equation for competitive tight-binding inhibition using the software KineTic (BioKin, Ltd.).
Inhibition of CDK4/Cyclin D Retinoblastoma Kinase Activity:
A complex of human CDK4 and genetically truncated (1-264) cyclin D3 was purified using traditional biochemical chromatographic techniques from insect cells that had been co-infected with the corresponding baculovirus expression vectors (see e.g., Meijer and Kim, “Chemical Inhibitors of Cyclin-Dependent Kinases,” Methods in Enzymol,. vol. 283 (1997), pp. 113-128.). The enzyme complex (5 nM) was assayed with 0.3-0.5 μg of purified recombinant retinoblastoma protein fragment (Rb) as a substrate. The engineered Rb fragment (residues 386-928 of the native retinoblastoma protein; 62.3 kDa) contains the majority of the phosphorylation sites found in the native 106-kDa protein, as well as a tag of six histidine residues for ease of purification. Phosphorylated Rb substrate was captured by microfiltration on a nitrocellulose membrane and quantified using a phosphorimager as described above. For measurement of tight-binding inhibitors, the assay duration was extended to 60 minutes, during which the time-dependence of product formation was linear and initial rate conditions were met.

A further assay deals with CDK2/Cyclin A (Homo sapiens, UniProt P24941). The assay is described as follows: Inhibition of CDK2/Cyclin A Retinoblastoma Kinase Activity. Format: biochemical. The conditions noted are these: apparent Ki, CDK2/proteolyzed cyclin A, Rb fragment substrate, 25 μM ATP. In a few lines: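 CDK2 (10 or 19 nM), insect-cell expressed, gel-filtration purified with truncated cyclin A; Rb fragment substrate; 25 μM ATP; 10 mM HEPES pH 7.4, 10 mM MgCl2; 30° C, 60 or 75 min; EDTA stop; phosphocellulose/nitrocellulose capture, phosphorimager. % inhibition vs DMSO control, no-enzyme background subtracted.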

The subject of another assay is HCT-116 cell line. In words: Inhibition of cell growth, tetrazolium salt (MTT) assay. Format: cell-based. The conditions noted are these: Homo sapiens, HCT-116, 120 h, MTT, three to five days, read-out: HCT-116 IC50. The procedure, abridged: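 HCT-116 cells in McCoy's 5A medium received compound 4 h after plating (0.5% v/v DMSO) and were incubated three to five days at 37° C, 5% CO2. MTT (0.2 mg/mL final) then added for 4 h; DMSO-solubilized formazan read at 540 nm against 0.5% DMSO-treated controls.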

Structures can show the parent of a compound that is named as a salt. Where two headings read alike, the source gives them in different places.

Chain of human CDK4 and genetically truncated (1-264) cyclin D3 (P11802 whole entry, the tested form may be a part): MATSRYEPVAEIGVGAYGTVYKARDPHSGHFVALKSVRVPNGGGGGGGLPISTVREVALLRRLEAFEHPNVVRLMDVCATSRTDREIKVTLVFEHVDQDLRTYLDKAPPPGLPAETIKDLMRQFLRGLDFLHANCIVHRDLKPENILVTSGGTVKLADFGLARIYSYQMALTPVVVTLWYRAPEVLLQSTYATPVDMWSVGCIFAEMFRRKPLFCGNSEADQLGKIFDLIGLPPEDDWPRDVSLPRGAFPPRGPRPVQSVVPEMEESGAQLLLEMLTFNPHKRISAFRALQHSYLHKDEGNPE
Chain of human CDK4 and genetically truncated (1-264) cyclin D3 (P30281 1-264 partner): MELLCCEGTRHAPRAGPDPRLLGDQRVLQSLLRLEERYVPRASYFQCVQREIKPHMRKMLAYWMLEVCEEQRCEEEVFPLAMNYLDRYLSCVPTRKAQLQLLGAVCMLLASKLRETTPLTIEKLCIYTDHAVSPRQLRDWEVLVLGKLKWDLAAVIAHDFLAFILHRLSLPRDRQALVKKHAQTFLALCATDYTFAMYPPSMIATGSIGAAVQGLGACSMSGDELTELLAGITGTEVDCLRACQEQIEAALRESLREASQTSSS

On to `Nc1nc(NC2CCN(S(=O)(=O)CCCN3CCC4CCCCC4C3)CC2)sc1C(=O)c1c(F)cccc1F` (mixture of isomers) [Example K10, 1-(4-Amino-2-{1-[3-([cis/trans]-octahydro-1H-isoquinolin-2-yl)propane-1-sulfonyl]-piperidin-4-ylamino}-thiazol-5-yl)-1-(2,6-difluoro-phenyl)-methanone.], for which the results for the Ki (in assay [1]; on CDK2/Cyclin A) were 1.1 nM and 2.6 nM, respectively. Also, the IC50 in the assay with HCT-116 cell line (first HCT-116 column (c4)) was 190 nM; in the assay with HCT-116 cell line (second HCT-116 column (c5)), 1300 nM.
`CC1CCC(C)N1CCS(=O)(=O)N1CCC(Nc2nc(N)c(C(=O)c3c(F)cccc3F)s2)CC1` (mixture of isomers) [Example K26, (4-Amino-2-{1-[2-(cis/trans-2,5-dimethyl-pyrrolidin-1-yl)-ethanesulfonyl]-piperidin-4-ylamino}-thiazol-5-yl)-(2,6-difluoro-phenyl)-methanone Trifluoroacetic Acid Salt.]: the Ki was determined as 2.1 nM in assay [1] and 13 nM on CDK2/Cyclin A. Moreover, the figures for the IC50 in the assay with HCT-116 cell line (first HCT-116 column (c4)) and in the assay with HCT-116 cell line (second HCT-116 column (c5)) were 190 nM and 800 nM, respectively.
With `CC1C=CC(C)N1CCS(=O)(=O)N1CCC(Nc2nc(N)c(C(=O)c3c(F)cccc3F)s2)CC1` (mixture of isomers) [Example K27, (4-Amino-2-{1-[2-(cis/trans-2,5-dimethyl-2,5-dihydro-pyrrol-1-yl)-ethanesulfonyl]-piperidin-4-ylamino}-thiazol-5-yl)-(2,6-difluoro-phenyl)-methanone Trifluoroacetic Acid Salt.], the Ki is 3.5 nM in assay [1] and 11 nM at CDK2/Cyclin A. Moreover, the half-inhibitory concentration (IC50) was determined as 230 nM with HCT-116 cell line (first HCT-116 column (c4)) and 800 nM in the assay on HCT-116 cell line (second HCT-116 column (c5)).
As to `CC1CCC(NCCS(=O)(=O)N2CCC(Nc3nc(N)c(C(=O)c4c(F)cccc4F)s3)CC2)CC1` (mixture of isomers) [Example K40, (4-Amino-2-{1-[2-(4(cis/trans)-methyl-cyclohexylamino)-ethanesulfonyl]-piperidin-4-ylamino}-thiazol-5-yl)-(2,6-difluoro-phenyl)-methanone], the values for the Ki (in assay [1]; on CDK2/Cyclin A) were 2.1 nM and 0.51 nM, respectively. The IC50 with HCT-116 cell line (first HCT-116 column (c4)) stood at 66 nM; in the assay with HCT-116 cell line (second HCT-116 column (c5)), 280 nM.
`CC1CCCC(NCCS(=O)(=O)N2CCC(Nc3nc(N)c(C(=O)c4c(F)cccc4F)s3)CC2)C1` (mixture of isomers) [Example K43, (4-Amino-2-{1-[2-(3(cis/trans)-methyl-cyclohexylamino)-ethanesulfonyl]-piperidin-4-ylamino}-thiazol-5-yl)-(2,6-difluoro-phenyl)-methanone]: the Ki in assay [1] was determined as 2.4 nM; at CDK2/Cyclin A, 0.57 nM. Besides, the results for the IC50 with HCT-116 cell line (first HCT-116 column (c4)) and with HCT-116 cell line (second HCT-116 column (c5)) were 51 nM and 300 nM, respectively.
As to `COc1ccccc1/C=C\C(=O)N1CCC(Nc2nc(N)c(C(=O)c3c(F)cccc3F)s2)CC1` [Example D18, 1-{4-[4-Amino-5-(2,6-difluoro-benzoyl)-thiazol-2-ylamino]-piperidin-1-yl}3(Z)-(2-methoxy-phenyl)-propenone], the Ki in assay [1] is 18 nM; on CDK2/Cyclin A, 54 nM.
With `COc1ccc(Cl)cc1C(=O)N1CCC(Nc2nc(N)c(C(=O)c3c(F)cccc3F)s2)CC1` [Example D19, {4-Amino-2-[1-(5-chloro-2-methoxy-benzoyl)-piperidin-4-ylamino]-thiazol-5-yl}-(2,6-difluoro-phenyl)-methanone], the Ki in assay [1] is 79 nM; at CDK2/Cyclin A, 105 nM.
`CN(C)S(=O)(=O)N1CCC(Nc2nc(N)c(C(=O)c3c(F)cccc3F)s2)CC1` [Example E1, 4-[4-Amino-5-(2,6-difluoro-benzoyl)-thiazol-2-ylamino]-piperidine-1-sulfonic acid dimethylamide]: the Ki in assay [1] came out at 22 nM; at CDK2/Cyclin A, 14 nM.
The corresponding values for `Nc1nc(NC2CCN(S(=O)(=O)c3ccc(Cl)nc3)CC2)sc1C(=O)c1c(F)cccc1F` [Example F21, 1-(4-Amino-2-[1-(6-chloro-pyridine-3-sulfonyl)-piperidin-4-ylamino]-thiazol-5-yl}-1-(2,6-difluoro-phenyl)-methanone] are 2.5 nM and 1.7 nM.
Regarding `Nc1nc(NC2CCN(S(=O)(=O)c3ccc([N+](=O)[O-])cn3)CC2)sc1C(=O)c1c(F)cccc1F` [Example F29, 1-{4-Amino-2-[1-(5-nitro-pyridine-2-sulfonyl)-piperidin-4-ylamino]-thiazol-5-yl}-1-(2,6-difluoro-phenyl)-methanone], the Ki in assay [1] was determined as 400 nM; at CDK2/Cyclin A, 1000 nM.
As to `N#Cc1ccc(S(=O)(=O)N2CCC(Nc3nc(N)c(C(=O)c4c(F)cccc4F)s3)C2)cc1` (stereo not shown) [Example F38, 4-{3-[4-Amino-5-(2,6-difluoro-benzoyl)-thiazol-2-ylamino]-pyrrolidine-1-sulfonyl}-benzonitrile], the Ki in assay [1] is 360 nM; at CDK2/Cyclin A, 99 nM.
The matching figures for `CS(=O)(=O)N1CCC(Nc2nc(N)c(C(=O)c3c(F)cccc3F)s2)C1` (stereo not shown) [Example F39, [4-Amino-2-(1-methanesulfonyl-pyrrolidin-3-ylamino)-thiazol-5-yl]-(2,6-difluoro-phenyl)-methanone]: 330 nM and 520 nM.
In the case of `N#Cc1ccc(S(=O)(=O)N2CC[C@H](Nc3nc(N)c(C(=O)c4c(F)cccc4F)s3)C2)cc1` [Example F40, 4-{3S-[4-Amino-5-(2,6-difluoro-benzoyl)-thiazol-2-ylamino]-pyrrolidine-1-sulfonyl}-benzonitrile], the Ki in assay [1] was found to be 380 nM; at CDK2/Cyclin A, 58 nM.
On to `CS(=O)(=O)N1CC[C@H](Nc2nc(N)c(C(=O)c3c(F)cccc3F)s2)C1` [Example F41, [4-3S-Amino-2-(1-methanesulfonyl-pyrrolidin-3-ylamino)-thiazol-5-yl]-(2,6-difluoro-phenyl)-methanone], for which the Ki in assay [1] was found to be 1600 nM; at CDK2/Cyclin A, 750 nM.
With `Nc1nc(NC2CCN(S(=O)(=O)c3cncc(Cl)n3)CC2)sc1C(=O)c1c(F)cccc1F` [Example F49, {4-Amino-2-[1-(6-chloro-pyrazine-2-sulfonyl)-piperidin-4-ylamino]-thiazol-5-yl}-(2,6-difluoro-phenyl)-methanone], the figures for the Ki (in assay [1]; on CDK2/Cyclin A) were 1.1 nM and 0.46 nM, respectively.
For `Nc1nc(NC2CCN(S(=O)(=O)c3ccc(-n4ccnc4)cc3)CC2)sc1C(=O)c1c(F)cccc1F` [Example G30, 1-{4-Amino-2-[1-(4-imidazol-1-yl-benzenesulfonyl)-piperidin-4-ylamino]-thiazol-5-yl}-1-(2,6-difluoro-phenyl)-methanone], the Ki in assay [1] turned out to be 0.45 nM; at CDK2/Cyclin A, 0.31 nM.
Regarding `Nc1nc(NC2CCN(S(=O)(=O)CCCn3ccnn3)CC2)sc1C(=O)c1c(F)cccc1F` [Example K3, 1-{4-Amino-2-[1-(3-triazol-1-yl-propane-1-sulfonyl)-piperidin-4-ylamino]-thiazol-5-yl}-1-(2,6-difluoro-phenyl)-methanone.], the Ki came to 4 nM in assay [1] and 4.4 nM at CDK2/Cyclin A.
As for `Nc1nc(NC2CCN(S(=O)(=O)CCN3CCC(c4ccccc4)C3)CC2)sc1C(=O)c1c(F)cccc1F` (stereo not shown) [Example N5, (4-Amino-2-{1-[2-(3-phenyl-pyrrolidin-1-yl)-ethanesulfonyl]-piperidin-4-ylamino}-thiazol-5-yl)-(2,6-difluoro-phenyl)-methanone Hydrochloride Salt.], the Ki in assay [1] was 1.5 nM; on CDK2/Cyclin A, 1.8 nM.
